Assay results published in PubChem BioAssay (NCI).
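Cultured in 96-well plates, cells were exposed to test compound for 48 hours across five concentrations. GI50 marks 50% less growth. TGI is the concentration that stops growth completely.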

Tested on: MDA-MB-468 breast
Test: NCI tumour cell line growth inhibition, 48 h

| Compound | GI50 [nM] | TGI [nM] |
| --- | --- | --- |
| COc1ccc2ccc3oc([N+](=O)[O-])cc3c2c1 | 168 | 381 |
| CCN(c1cc(C#CCN2CCOCC2)cc(C(=O)NCc2c(C)cc(C)[nH]c2=O)c1C)C1CCC(N(C)CCOC)CC1 (stereo not given) | > 100000 | > 100000 |
| COc1c(B(O)O)cc(F)cc1-c1nc2ccc3[nH]ncc3c2c2c1CCCC2 | 1510 | 4210 |
| COc1ccc2nc3cc(Cl)ccc3c(NCCNc3c4ccc(Cl)cc4nc4ccc(OC)cc34)c2c1 | 1800 | 3780 |
| N#CC1C=Cc2c(ccc3ccccc23)N1C(=O)c1ccccc1 (stereo not given) | 43.2 | 218 |
| COc1ccc(Cn2cc3c(c2-c2cc(OC)c(OC)c(OC)c2)CCc2cnoc2-3)cc1 | 171 | 622 |
| O=C(NC(=S)Nc1cc(Cl)ccc1O)c1cccc(Br)c1 | 5250 | > 100000 |
| CC(C)(C)c1ccc(NS(=O)(=O)c2ccc3nc(NC(=O)c4cnccn4)[nH]c3c2)cc1 | 712 | 4270 |
| CC1(C)C(=O)/C(=C\c2cccnc2)C[C@]2(C)[C@H]3CC[C@@H]4[C@@H](C(=O)/C=C/c5ccncc5)CC[C@@]4(C)[C@]3(C)CC[C@@H]12 | 1720 | 3670 |
| CNCCN=c1ccc2c3c1c(O)c1c(O)ccc(=O)c1c3[nH]n2CCNCCO | 63.4 | 435 |
| C[C@@H]1COCCN1c1cc(C2(O)C[C@H]3CC[C@@H](C2)O3)c2cnn(-c3ccn[nH]3)c2n1 (stereo not given in full) | 113 | 545 |
| Cc1cc(C(=O)c2ccccc2)c(C)c2c1[nH]c1ccc(Cl)cc12 | 33.9 | 1120 |
| Cc1ccc(-c2cc(O)c(-c3ccc(C)cc3C)cc2O)c(C)c1 | 1750 | 13500 |
| C=CC(COC(c1ccccc1)(c1ccccc1)c1ccccc1)N(CC)CC (stereo not given) | 2430 | 6750 |
| CCN(Cc1c(Cl)cccc1Cl)c1ccc(CO)c(Cl)c1 |  | 33 |
| O=c1ccc2nc(-c3ccccn3)nn(-c3ccccc3)c-2c1 | 1440 | 3450 |
| CCN(CC)c1ccc(/C=C/C=C2\NC(=O)NC2=O)cc1 | 1820 | 7260 |
| Nc1c(C(=O)Nc2cccc(Cl)c2Cl)sc2nc3c(cc12)C(=O)CCC3 | 786 | > 100000 |
| CC(=O)c1cc(O)c2ccccc2c1O | 17500 | 33400 |
| O=C1OCC2=C1C(c1ccccc1)c1cc3c(cc1N2CCO)OCCO3 (stereo not given) | 138 | 959 |

| Compound | GI50 [nM] | TGI [nM] |
| --- | --- | --- |
| Nc1ncc(-c2cccc(S(N)(=O)=O)c2)c2scc(-c3ccc(F)c(Cl)c3)c12 | 5130 | 15700 |
| Cn1cc(C2=C(N3CCOCC3)C(=O)NC2=O)c2ccccc21 | > 25000 | > 25000 |
| Cc1cc(Nc2cc(N)ncn2)c(=O)n2c1C(=O)NC21CCCCC1 | 94900 | > 100000 |
| C=C1C(=O)O[C@H]2[C@H]1CC/C(COC(=O)NCc1ccc(Cn3c(=O)sn(-c4ccccc4)c3=O)cc1)=C\CC[C@@]1(C)O[C@@H]21 | 1170 | 2850 |
| CC(=O)c1nc2ccccc2n1CC(=O)c1cccc(Cl)c1 | 328 |  |
| CC(=C/c1ccccc1)/C=C1/NC(=S)N(/C=C2\C(=O)Oc3ccccc3C2=O)C1=O | 26900 | > 100000 |
| Cc1cccc(Cc2cnc(NC(=O)CCc3ccc(C)o3)s2)c1 | 112 | 6560 |
| O=c1oc2c(C(F)(F)F)cccc2cc1-c1csc(Nc2ccc(OCCF)cc2)n1 | 40.1 | 12400 |
| CN(C)CCCn1c(-c2nonc2N)nc2cnccc21 |  | > 25000 |
| CCCCCCCCCCCCCCCC1=NC(C)(C)CN1C(C)C | 1320 | 2660 |
| C[C@@H](Nc1nc(Nc2ccc(F)c(Cl)c2)nc2ccccc12)C1CC1 | 1350 | 3740 |
| CCCCCn1c(C)cc(/C=C\c2ccc3cc(C)ccc3[n+]2C)c1C | 13.3 | 52.3 |
| CC[C@H](C)C(=O)O[C@H]1C[C@H](O)C=C2C=C[C@H](C)[C@H](CC[C@@H](O)C[C@@H](O)CC(=O)O)[C@H]21 | > 100000 | > 100000 |
| COc1cc(-c2csc(NC(=O)Nc3cc(Cl)cc(Cl)c3)n2)cc(OC)c1OC | 1670 | 3820 |
| COc1ccc(-c2nn(-c3ccc(NC(=O)Nc4ccc(Cl)c(C(F)(F)F)c4)cc3)cc2-c2ccncc2)cc1Cl | 1180 | 3110 |
| CC#Cc1nc(Nc2cc(C)[nH]n2)c2ccccc2n1 | 2470 | 6400 |
| O=C(CCCCC(=O)N/N=C\c1ccccc1O)N/N=C\c1ccccc1O | 2630 | > 100000 |
| Cc1c(Cl)cccc1NC(=O)c1sc2nc3c(cc2c1N)CCCCC3 | 165 | 29600 |
| Oc1ccc(N=Nc2ccccn2)c(O)c1 | 681 | 4650 |
